Source: US5132432A, “Chemically reactive pyrenyloxy sulfonic acid dyes” (Molecular Probes, Inc., priority 1989, dated 1992)
Where a name gives a salt, the structure may show the parent alone.

Assays:
[1] = Comparison of spectral properties of reactive dyes, Table 1; type: physicochemical; conditions: for ε: at first maximum; for Abs Max: first maximum; for Emission Bandwidth / Emission Bandwidth [cm^-1]: full bandwidth at half peak height; for Quantum Yield: in aqueous solution, grade in words; for % Emission at 514 nm: percent of maximum emission at 514 nm
Description: A number of dyes have been proposed in the literature that can be excited and detected at wavelengths less than 500 nm. Several chemically reactive fluorophores that can be excited in the near ultraviolet and short wavelength visible region of the spectrum have been described. […] These proposed tracers are derived from naphthalene derivatives such as 5-dimethylaminonaphthalene-1-sulfonic acid (Dansyl) [Weber, Biochem. J. 41:145 (1952); Rinderknecht, Experientin 16:430 (1960)], 3-(isothiocyanato)naphthalene-1,5-disulfonic acid [Braunitzer, et al., Hoppe-Seyler's Z. Physiol. […] Chem. 358:505 (1977)], pyrene derivatives such as pyrene-1-butyric acid (PBA) [Malencik & Anderson, Biochemistry 11:3022 (1972)], 8-isothiocyanatopyrene-1,3,6-trisulfonic acid (IPTS) [Braunitzer,et al., Hoppe-Seyler's Z. Physiol. Chem. 354:1536 (1973)] and 8-hydroxypyrene-1,3,6-trisulfonyl chloride [Wolfbeis, Fresenies Z. Anal. Chem. 320:271 (1985)], stilbene derivatives such as 4-acetamido-4'-isothiocyanatostilbene-2,2'-disulfonic acid (SITS) [Cornelisse & Ploem, J. Histochem. Cytochem. 24:72 (1976)], and coumarin dyes such as 3-carboxy-7-hydroxycoumarin [Baker & Collis, J. Chem. Soc. 1949, S 12 (1949)], 7-hydroxy-4-methylumbelliferone-3-acetic acid (4-MUA) [Khalfan, et al., Biochem. J. 209:265 (1983)], 7-amino-4-methylcoumarin-3-acetic acid (AMCA) [Khalfan, et al., Histochem. J. 18:497 (1986)] and 7-diethylaminocoumarin [Staines, et al. (1988)].

[2] = Solubility in water / aqueous solution; conditions: solubility of the reactive form of the dye; grade in words
[3] = Spectral properties (absorption/emission) of new pyrenyloxy sulfonic acid dyes, Table 4; type: physicochemical; conditions: 50 mM aqueous potassium phosphate buffer at pH 8.0; for Em Max: uncorrected
Experimental: Stock solutions were prepared by accurately weighing and dissolving 5-10 mg samples of the compounds in 2.000 ml water. A 10 μl aliquot of the stock solution was diluted into 2.00 ml of 50 mM potassium phosphate buffer at pH 8.0. Absorbance solutions were prepared by further diluting 200 μl of the diluted stock solution to 2.000 ml with 50 mM potassium phosphate buffer at pH 8.0. Absorption data was collected on an IBM Model 9420 UV/Visible Spectrophotometer and extinction coefficients were determined by standard Beer's Law calculations.
Uncorrected fluorescence data was obtained on a Perkin-Elmer Model 650-40 Fluorescence Spectrophotometer equipped with a Perkin-Elmer/Hitachi 057 X-Y Recorder using a ten- to twentyfold dilution of the absorbance solutions. Fluorescence of the pyrenyloxy sulfonic acid dyes was determined for the reactive dyes and for their conjugates with model compounds by dissolving the dye at a concentration above 1×10^-8M in an appropriate solvent such as water, methanol, ethanol, or dimethylsulfoxide and measurement of the fluorescence in a suitable instrument, such as a fluorescence spectrometer or fluorescence microscope or flow cytometer. Fluorescence could also be observed for the dyes in solution by visual inspection with illumination by a suitable source that emits light at wavelengths of less than 420 nm.

[4] = Quantum yield relative to quinine sulfate; type: physicochemical; conditions: in water
Description: An estimate of the quantum yield of the dyes relative to quinine sulfate (quantum yield=0.55 in 1N sulfuric acid) was obtained by integrating the emission spectrum of the dye excited at the same wavelength and optical density as the standard.

[5] = physiological range (pH 6 to 8); cited from earlier work
[6] = cited from earlier work
[7] = background statement; cited from earlier work
[8] = second (shorter-wavelength) maximum
[9] = first (longer-wavelength) maximum

For `Cc1c(CC(=O)O)c(=O)oc2cc(N)ccc12` [AMCA, 7-amino-4-methylcoumarin-3-acetic acid], the “Em. Max.” value [1] was 442 nm, the ε [1] was 15200 M⁻¹ cm⁻¹ and the “Abs Max” value [1] was 354 nm. For the same compound, the “Emission Bandwidth” value [1] was 57 nm, the “Emission Bandwidth [cm^-1]” value [1] was 2858 cm⁻¹ and the “Quantum Yield” value [1] was “med”. For the same compound, the “% Emission at 514 nm” value [1] was 12 % of max and the “Water Solubility” value [2] was “low”.

With `O=C(O)COc1cc(S(=O)(=O)[O-])c2ccc3c(S(=O)(=O)[O-])cc(S(=O)(=O)[O-])c4ccc1c2c43.[Na+].[Na+].[Na+]` [Compound 2, 1,3,6-Trisulfo-8-pyrenyloxyacetic acid, trisodium salt] the “Emission Band-width” value [3] was 52 nm, the “Emission at 514 nm” value [3] was 5.8 % of max and the “Em Max” value [3] was 430 nm. The ε ([3]; at first maximum) was 27.0 10^3 M^-1 cm^-1, the ε ([3]; at second maximum) was 19.8 10^3 M^-1 cm^-1 and the “Abs Max” value [3, 8] was 374 nm. The Quantum Yield [4] was “greater than 0.90”.

For `NCCNC(=O)COc1cc(S(=O)(=O)O)c2ccc3c(S(=O)(=O)O)cc(S(=O)(=O)O)c4ccc1c2c43` [Compound 3, 1,3,6-Trisulfo-8-pyrenyloxyacetamido-1-(2-aminoethane), trisodium salt], the “Emission Band-width” value [3] was 50 nm, the “Emission at 514 nm” value [3] was 4.9 % of max and the “Abs Max” value [3, 9] was 399 nm.

In the case of `NCCCCCNC(=O)COc1cc(S(=O)(=O)O)c2ccc3c(S(=O)(=O)O)cc(S(=O)(=O)O)c4ccc1c2c43` [Compound 4, 1-(1,3,6-Trisulfo-8-pyrenloxyacetamido)-(5-aminopentane), trisodium salt], the “Emission Band-width” value [3] is reported as 50 nm, the “Emission at 514 nm” value [3] is reported as 3.9 % of max and the “Em Max” value [3] is reported as 422 nm. For the same compound, the ε ([3]; at first maximum) was 27.6 10^3 M^-1 cm^-1, the ε ([3]; at second maximum) was 22.8 10^3 M^-1 cm^-1 and the “Abs Max” value [3, 8] was 377 nm. For the same compound, the Quantum Yield [4] was “greater than 0.90”.

With `Cc1c(CC(=O)O)c(=O)oc2cc(O)ccc12` [Compound 4-MUA, 7-hydroxy-4-methylumbelliferone-3-acetic acid] the “Em. Max.” value [1] was 454 nm, the ε [1] was 19100 M⁻¹ cm⁻¹ and the “Abs Max” value [1] was 360 nm. The “Emission Bandwidth” value [1] was 58 nm, the “Emission Bandwidth [cm^-1]” value [1] was 2668 cm⁻¹ and the “Quantum Yield” value [1] was “med”. The “% Emission at 514 nm” value [1] was 20 % of max, the “sensitivity to solution pH” value [5] was “high sensitivity to solution pH” and the “Water Solubility” value [2] was “low”.

With `O=C(COc1cc(S(=O)(=O)O)c2ccc3c(S(=O)(=O)O)cc(S(=O)(=O)O)c4ccc1c2c43)NCCO` [Compound 10] the “Emission Band-width” value [3] was 50 nm, the “Emission at 514 nm” value [3] was 3.3 % of max and the “Abs Max” value [3, 9] was 399 nm. The “Abs Max” value [3, 8] was 377 nm.

In the case of `NNC(=O)COc1cc(S(=O)(=O)O)c2ccc3c(S(=O)(=O)O)cc(S(=O)(=O)O)c4ccc1c2c43` [Compound 11, 1,3,6-Trisulfo-8-pyrenyloxyacethydrazide, free sulfonic acid], the “Emission Band-width” value [3] is reported as 51 nm, the “Abs Max” value [3, 9] is reported as 399 nm and the “Abs Max” value [3, 8] is reported as 377 nm.

In the case of `N.N.N.NNC(=O)COc1cc(S(=O)(=O)O)c2ccc3c(S(=O)(=O)O)cc(S(=O)(=O)O)c4ccc1c2c43` [Compound 13, 1,3,6-Trisulfo-8-pyrenyloxyacethydrazide, triammonium salt], the “Emission Band-width” value [3] is reported as 50 nm, the “Emission at 514 nm” value [3] is reported as 3.8 % of max and the “Abs Max” value [3, 9] is reported as 399 nm. The “Abs Max” value [3, 8] was 376 nm.

In the case of `CC(C)(C)OC(=O)N1CCC[C@H]1C(=O)NCCNC(=O)COc1cc(S(=O)(=O)[O-])c2ccc3c(S(=O)(=O)[O-])cc(S(=O)(=O)[O-])c4ccc1c2c43.[Na+].[Na+].[Na+]` [Compound 14, N-(1,3,6-Trisulfo-8-pyrenyloxyacetyl)-N'-(N-t-butoxycarbonyl-L-prolyl)-1,2-ethanediamine, trisodium salt], the “Emission Band-width” value [3] is reported as 49 nm, the “Emission at 514 nm” value [3] is reported as 2.8 % of max and the “Em Max” value [3] is reported as 422 nm. For the same compound, the “Abs Max” value [3, 9] was 399 nm and the Quantum Yield [4] was “greater than 0.90”.

With `CC(C)(C)OC(=O)N1CCC[C@H]1C(=O)NCCCCCNC(=O)COc1cc(S(=O)(=O)O)c2ccc3c(S(=O)(=O)O)cc(S(=O)(=O)O)c4ccc1c2c43` [Compound 15] the “Emission Band-width” value [3] was 50 nm, the “Emission at 514 nm” value [3] was 3.0 % of max and the “Abs Max” value [3, 9] was 399 nm. For the same compound, the “Abs Max” value [3, 8] was 377 nm.

With `N#CCCCCCNC(=O)COc1cc(S(=O)(=O)O)c2ccc3c(S(=O)(=O)O)cc(S(=O)(=O)O)c4ccc1c2c43` [Compound 16] the “Emission Band-width” value [3] was 49 nm, the “Emission at 514 nm” value [3] was 3.0 % of max and the “Abs Max” value [3, 9] was 399 nm. The “Abs Max” value [3, 8] was 377 nm.

In the case of `C=CC(=O)NCCCCCNC(=O)COc1cc(S(=O)(=O)O)c2ccc3c(S(=O)(=O)O)cc(S(=O)(=O)O)c4ccc1c2c43` [Compound 19], the “Emission Band-width” value [3] is reported as 49 nm, the “Emission at 514 nm” value [3] is reported as 2.9 % of max and the “Abs Max” value [3, 9] is reported as 399 nm.

With `[N-]=[N+]=Nc1ccc(C(=O)NCCCCCNC(=O)COc2cc(S(=O)(=O)[O-])c3ccc4c(S(=O)(=O)[O-])cc(S(=O)(=O)[O-])c5ccc2c3c54)cc1.[Na+].[Na+].[Na+]` [Compound 20, N-(1,3,6-Trisulfo-8-pyrenyloxyacetyl)-N'-(4-azidobenzoyl)-1,5-pentanediamine, trisodium salt] the “Emission Band-width” value [3] was 50 nm, the “Emission at 514 nm” value [3] was 3.5 % of max and the “Em Max” value [3] was 424 nm. The “Abs Max” value [3, 9] was 400 nm.

For `COC(=O)COc1cc(OCC(=O)OC)c2ccc3c(S(=O)(=O)O)cc(S(=O)(=O)O)c4ccc1c2c43` [Compound 21, Dimethyl 1,3-disulfo-6-carboxymethoxy-8-pyrenyloxyacetic acid, disodium salt], the “Emission Band-width” value [3] was 55 nm, the “Emission at 514 nm” value [3] was 13.0 % of max and the “Em Max” value [3] was 447 nm. The ε ([3]; at first maximum) was 24.5 10^3 M^-1 cm^-1 and the “Abs Max” value [3, 9] was 396 nm.

For `CN(C)c1cccc2c(S(=O)(=O)O)cccc12` [Dansyl, 5-dimethylaminonaphthalene-1-sulfonic acid], the “Em. Max.” value [1] was 578 nm, the ε [1] was 4500 M⁻¹ cm⁻¹ and the “Abs Max” value [1] was 340 nm. For the same compound, the “Quantum Yield” value [1] was “low” and the “Water Solubility” value [2] was “low”.

In the case of `O=S(=O)(O)c1cc(N=C=S)c2ccc3c(S(=O)(=O)O)cc(S(=O)(=O)O)c4ccc1c2c34` [IPTS, 8-isothiocyanatopyrene-1,3,6-trisulfonic acid], the “Em. Max.” value [1] is reported as 458 nm, the ε [1] is reported as 25600 M⁻¹ cm⁻¹ and the “Abs Max” value [1] is reported as 373 nm. The “Emission Bandwidth” value [1] was 78 nm, the “Emission Bandwidth [cm^-1]” value [1] was 3634 cm⁻¹ and the “Quantum Yield” value [1] was “low”. The “% Emission at 514 nm” value [1] was 38 % of max and the “Water Solubility” value [2] was “high”.

For `O=C(O)CCCc1ccc2ccc3cccc4ccc1c2c34` [PBA, pyrene-1-butyric acid], the “Em. Max.” value [1] was 377 nm, the ε [1] was 45100 M⁻¹ cm⁻¹ and the “Abs Max” value [1] was 341 nm. For the same compound, the “Quantum Yield” value [1] was “low”, the “% Emission at 514 nm” value [1] was 2 % of max and the “Water Solubility” value [2] was “low”.

For `O=C1OC2(c3ccc(O)cc3Oc3cc(O)ccc32)c2ccccc21` [fluorescein], the extinction coefficient ([6]; at absorbance maximum) is given as 75,000 cm^-1 M^-1 and the emission onset ([6]; beginning of visible emission) is given as “approximately 480 nm”.

In the case of `O=S(=O)(Cl)c1cc(O)c2ccc3c(S(=O)(=O)Cl)cc(S(=O)(=O)Cl)c4ccc1c2c34` [hydroxypyrenetrisulfonyl chloride, 8-hydroxypyrene-1,3,6-trisulfonyl chloride], the “sensitivity to solution pH” value [5] is given as “high sensitivity to solution pH”.

For `Cc1c(CC(=O)ON2C(=O)CCC2=O)c(=O)oc2cc(N)ccc12` [succinimidyl ester of AMCA], the “aqueous solubility / lipophilicity” value [7] is given as “quite lipophilic and insoluble in the aqueous solutions”.

For `O=C(CCCc1ccc2ccc3cccc4ccc1c2c34)ON1C(=O)CCC1=O` [succinimidyl pyrene-1-butyrate], the “aqueous solubility / lipophilicity” value [7] is given as “quite lipophilic and insoluble in the aqueous solutions”.
